Data on four compounds can be found in US9926269B2, “Beta-lactam cholesterol absorption inhibitors” (Rudjer Boskovic Institute, priority 2013, dated 2018).

Assay type in all cases: cell-based
Data set [1] is described as follows: Cytotoxicity assay (MTT cell proliferation assay), HepG2 cells. The following applies: human, 72 h incubation, read-out: HepG2 LC50. On the procedure:
(§1) The cells were grown at 37° C. in a humidified 5% CO2 incubator. Stable transfection of MDCKII cells with human NPC1L1 protein was performed using the Lipofectamine LTX (Invitrogen, USA) according to the manufecturer's protocol. Selection with 1000 μg/mL G418 (Sigma-Aldrich, Germany) was started 2 days after transfection. The concentration of G418 was decreased to 500 μg/mL after 14 days. Transfected cells were maintained in DMEM (Dulbecco's Modified Eagle Medium) containing 100 units/mL penicillin and 100 μg/mL streptomycin supplemented with 10% FCS and 500 μg/mL G418.
(§2) For the cytotoxicity determination, MDCKII, hNPC1L1/MDCKII and HepG2 cells were seeded in 96-well microtiter plates on day 0 at the density of 3000 cells/well. […] The compound cytotoxicity was assessed on day 4 performing the MTT cell proliferation assay (Sigma-Aldrich, Germany) which detects mitochondrial dehydrogenase activity in viable cells. (Mosmann, T. J. Immunol. Methods 1983, 65, 55.) The results are expressed as LC50 and the values for each compound were calculated from dose-response curves using linear regression analysis. Each concentration was tested in quadruplicate in three independent experiments (Table 1).

Data set [2] in a line: Cytotoxicity assay (MTT cell proliferation assay), hNPC1L1/MDCKII cells. The conditions noted are these: dog, MDCKII cells stably expressing human NPC1L1 (hNPC1L1/MDCKII), 72 h incubation, read-out: hNPC1L1MDCKII LC50. The protocol: as §1, §2
Data set [3] is described as follows: Cytotoxicity assay (MTT cell proliferation assay), MDCKII cells. The conditions noted are these: dog, 72 h incubation, read-out: MDCKII LC50. The protocol:
as §1, §2

The subject of data set [4] is MDCKII cells stably expressing human NPC1L1 (hNPC1L1/MDCKII). Briefly: Cytotoxicity assay (MTT cell proliferation assay), hNPC1L1/MDCKII cells. The conditions noted are these: 72 h incubation, read-out: hNPC1L1MDCKII LC50. The protocol: as §1, §2

Take `O=C1[C@H](NCC(O)c2ccc(F)cc2)[C@@H](c2ccc(O)cc2)N1c1ccc(F)cc1` (mixture of isomers) [8/9-70/30, (3R,4R)-3-[(2R/S)-2-(4-fluorophenyl)-2-hydroxyethylamino]-1-(4-fluorophenyl)-4-(4-hydroxyphenyl)azetidin-2-one]: the CC50 at 72 h in data set [1], in data set [2] and in data set [3] was above 100 µM throughout.

`O=C1[C@H](NC[C@H](O)c2ccc(F)cc2)[C@@H](c2ccc(O)cc2)N1c1ccc(F)cc1` [Compound 8, (3R,4R)-3-[(2R)-2-(4-fluorophenyl)-2-hydroxyethylamino]-1-(4-fluorophenyl)-4-(4-hydroxyphenyl)azetidin-2-one]: the CC50 at 72 h in data set [1], in data set [2] and in data set [3] was above 100 µM each time.

With `O=C(/C=C/c1ccc(F)cc1)N[C@H]1C(=O)N(c2ccc(F)cc2)[C@@H]1c1ccc(O)cc1` [Compound 3, (E)-1-[(3R,4R)-1-(4-fluorophenyl)-4-(4-hydroxyphenyl)-2-oxo-3-azetidinylamino]-3-(4-fluorophenyl)-2-propen-1-one], the CC50 in data set [4] was 63.3 µM.

As for `O=C1[C@H](NC[C@@H](O)c2ccc(F)cc2)[C@@H](c2ccc(O)cc2)N1c1ccc(F)cc1` [Compound 9, (3R,4R)-3-[(2S)-2-(4-fluorophenyl)-2-hydroxyethylamino]-1-(4-fluorophenyl)-4-(4-hydroxyphenyl)azetidin-2-one], the CC50 at 72 h in data set [1], in data set [2] and in data set [3] was above 100 µM in each case.
